From ChEMBL document CHEMBL1149012, “Effects of phenolic constituents from the mulberry tree on arachidonate metabolism in rat platelets” (J Nat Prod, 1986)
Activity calls are given as the source filed them. The rule behind the calls is not given here.

Columns and labels:
Platelet [1] = assay: Inhibition of thromboxane B2 formation in Wistar King platelets; format: functional, cell-based; conditions: Rattus norvegicus
Platelet [2] = assay: Inhibition of 12-hydroxy-5,8,10,14-eicosatetraenoic acid formation in Wistar King platelets; format: functional, cell-based; conditions: Rattus norvegicus
Platelet [3] = assay: Inhibition of 12-hydroxy-5,8,10-heptadecatrienoic acid formation in Wistar King platelets; format: functional, cell-based; conditions: Rattus norvegicus
Platelet [4] = assay: Inhibition of 12-hydroxy-5,8,10,14-eicosatetraenoic acid formation in Wistar King platelets at 1 mM; format: functional; conditions: Rattus norvegicus
Platelet [5] = assay: Stimulation of 12-hydroxy-5,8,10,14-eicosatetraenoic acid formation in Wistar King platelets at 0.1 mM; format: functional, cell-based; conditions: Rattus norvegicus
Platelet [6] = assay: Inhibition of 12-hydroxy-5,8,10,14-eicosatetraenoic acid formation in Wistar King platelets at 0.1 mM; format: functional; conditions: Rattus norvegicus, values are per cent of control
Platelet [7] = assay: Stimulation of 12-hydroxy-5,8,10,14-eicosatetraenoic acid formation in Wistar King platelets at 1 mM; format: functional, cell-based; conditions: Rattus norvegicus
Platelet [8] = assay: Stimulation of 12-hydroxy-5,8,10,14-eicosatetraenoic acid formation in Wistar King platelets; format: functional, cell-based; conditions: Rattus norvegicus
Platelet [9] = assay: Stimulation of 12-hydroxy-5,8,10,14-eicosatetraenoic acid formation in Wistar King platelets at 10 uM; format: functional, cell-based; conditions: Rattus norvegicus
Platelet [10] = assay: Inhibition of thromboxane B2 formation in Wistar King platelets at 1 mM; format: functional; conditions: Rattus norvegicus
Platelet [11] = assay: Inhibition of 12-hydroxy-5,8,10-heptadecatrienoic acid formation in Wistar King platelets at 1 mM; format: functional; conditions: Rattus norvegicus

Structure (SMILES): OC[C@H]1O[C@@H](Oc2cc(O)cc(/C=C/c3ccc(O[C@@H]4O[C@H](CO)[C@@H](O)[C@H](O)[C@H]4O)cc3O)c2)[C@H](O)[C@@H](O)[C@@H]1O
- Activity (Platelet [1]): inactive
- Activity (Platelet [2]): inactive
- Activity (Platelet [3]): inactive

Structure (SMILES): CC(C)=CCC12Oc3cc(O)ccc3C1(O)Oc1cc(O)c([C@H]3C=C(C)C[C@@H](c4ccc(O)cc4O)[C@@H]3C(=O)c3ccc(O)cc3O)c(O)c1C2=O (stereo not given in full) [SANGGENON D]
- IC50 (Platelet [1]): 48.3 µM
- IC50 (Platelet [3]): 43.3 µM
- inhibition at 1000 µM (Platelet [4]): 51%
- Activity (Platelet [5]): Active
- residual activity at 100 µM (Platelet [6]): 256%

Structure (SMILES): CC(C)=CCc1c(O)ccc(C(=O)[C@@H]2[C@@H](c3c(O)cc(O)c4c(=O)c(CC=C(C)C)c(-c5ccc(O)cc5O)oc34)C=C(C)C[C@H]2c2ccc(O)cc2O)c1O [KUMANON H]
- IC50 (Platelet [1]): 75.7 µM
- Activity (Platelet [7]): Active
- IC50 (Platelet [3]): 24 µM
- Activity (Platelet [8]): Active
- Activity (Platelet [9]): Active

Structure (SMILES): CC(C)=CCc1c(-c2ccc(O)cc2O)oc2c([C@H]3Oc4cc(O)c5c(=O)c(CC=C(C)C)c(-c6ccc(O)cc6O)oc5c4[C@@H]4C=C(C)CC(C)(C)[C@H]34)c(O)cc(O)c2c1=O [KUMANON M]
- inhibition at 1000 µM (Platelet [4]): 68%
- inhibition at 1000 µM (Platelet [10]): 87.3%
- inhibition at 1000 µM (Platelet [11]): 81.5%

Structure (SMILES): CC12C[C@@H](c3ccc(O)cc3O1)C13OC1(c1ccc(O)cc1O)Oc1cc(-c4cc5ccc(O)cc5o4)cc(O)c1C3C2=O (stereo not given in full) [MULBERROFURAN Q]
- IC50 (Platelet [1]): 355 µM
- Activity (Platelet [7]): Active
- IC50 (Platelet [3]): 227 µM
- Activity (Platelet [8]): Active
- Activity (Platelet [9]): Active

Structure (SMILES): CC1=C[C@H](c2c(O)cc(-c3cc4ccc(O)cc4o3)cc2O)[C@@H](C(=O)c2ccc(O)cc2O)[C@H](c2ccc(O)cc2O)C1 [MULBERROFURAN J]
- IC50 (Platelet [1]): 50.7 µM
- IC50 (Platelet [2]): 823 µM
- IC50 (Platelet [3]): 36.3 µM
- inhibition at 1000 µM (Platelet [4]): 35.5%
- Activity (Platelet [5]): Active
- residual activity at 100 µM (Platelet [6]): 194%

Structure (SMILES): CC1=C[C@H]2c3c(O)cc(-c4cc5ccc(O)cc5o4)cc3O[C@@]3(c4ccc(O)cc4O)Oc4cc(O)ccc4[C@H](C1)[C@@H]23 [MULBERROFURAN G]
- IC50 (Platelet [1]): 34.7 µM
- IC50 (Platelet [2]): 89 µM
- IC50 (Platelet [3]): 10.7 µM

Structure (SMILES): CC(C)=CC[C@]12Oc3cc(O)c([C@H]4C=C(C)C[C@H](c5ccc(O)cc5O)[C@H]4C(=O)c4ccc(O)cc4O)c(O)c3C(=O)[C@@]1(O)Oc1cc(O)ccc12 [SANGGENON C]
- IC50 (Platelet [1]): 180 µM
- Activity (Platelet [7]): Active
- IC50 (Platelet [3]): 112 µM
- Activity (Platelet [8]): Active
- Activity (Platelet [9]): Active

Structure (SMILES): CC(C)=CCc1c(-c2ccc(O)cc2O)oc2c([C@H]3C=C(C)C[C@@H](c4ccc(O)cc4O)[C@@H]3C(=O)c3ccc(O)cc3O)c(O)cc(O)c2c1=O [KUMANON G]
- IC50 (Platelet [1]): 132 µM
- Activity (Platelet [7]): Active
- IC50 (Platelet [3]): 89.3 µM
- Activity (Platelet [8]): Active
- Activity (Platelet [9]): Active
